Reference: ChEMBL document CHEMBL3885881, “DrugMatrix”

Species on record: Rattus norvegicus
Test: DrugMatrix - Regimen: Daily Repeat
Type: toxicity, organism-based, Sprague-Dawley
Set-up: regimen Daily Repeat, gender Male, age 6-8 weeks
Details: in vivo, sc, route subcutaneous, […]; for BASOPHIL / EOSINOPHIL / ERYTHROCYTE COUNT / HEMATOCRIT / HEMOGLOBIN / LEUKOCYTE COUNT / LYMPHOCYTE / MEAN CORPUSCULAR HEMOGLOBIN / MEAN CORPUSCULAR HEMOGLOBIN CONCENTRATION / MEAN CORPUSCULAR VOLUME / MONOCYTE / NEUTROPHIL / PLATELET COUNT: tissue Blood; for ALANINE AMINOTRANSFERASE / ALBUMIN / ALKALINE PHOSPHATASE / ASPARTATE AMINOTRANSFERASE / BLOOD UREA NITROGEN / CARBON DIOXIDE / CHLORIDE / CHOLESTEROL / CREATININE / GLUCOSE / LACTATE DEHYDROGENASE / LIPASE / PHOSPHORUS / POTASSIUM / TOTAL BILIRUBIN / TOTAL PROTEIN / URIC ACID: tissue Plasma
[1] = 4 mg/kg, 72 h, dose level Low, time 3 day
[2] = 4 mg/kg, 120 h, dose level Low, time 5 day
[3] = 36 mg/kg, 72 h, dose level High, time 3 day
[4] = 36 mg/kg, 120 h, dose level High, time 5 day

For `Nc1c2ccccc2nc2ccccc12` [AMINACRINE], the BASOPHIL [1] was 0%, the EOSINOPHIL [1] was 0.67% and the “ERYTHROCYTE COUNT” value [1] was 6.9 x10E6/uL. The HEMATOCRIT [1] was 42.07%, the HEMOGLOBIN [1] was 14.07 G/DL and the “LEUKOCYTE COUNT” value [1] was 11.4 x10E3/uL. For the same compound, the LYMPHOCYTE [1] was 65.33%, the “MEAN CORPUSCULAR HEMOGLOBIN” value [1] was 20.43 pg and the “MEAN CORPUSCULAR HEMOGLOBIN CONCENTRATION” value [1] was 33.4 G/DL. For the same compound, the “MEAN CORPUSCULAR VOLUME” value [1] was 61.1 fL, the MONOCYTE [1] was 8.67% and the NEUTROPHIL [1] was 25.67%. For the same compound, the “PLATELET COUNT” value [1] was 1093.67 x10E3/uL, the “ALANINE AMINOTRANSFERASE” value [1] was 44 u/L and the ALBUMIN [1] was 3.9 G/DL. The “ALKALINE PHOSPHATASE” value [1] was 311.67 u/L, the “ASPARTATE AMINOTRANSFERASE” value [1] was 81 u/L and the “BLOOD UREA NITROGEN” value [1] was 14.67 mg/dL. The “CARBON DIOXIDE” value [1] was 22.33 mmol/L, the CHLORIDE [1] was 106 MEQ/L and the CHOLESTEROL [1] was 68.33 mg/dL. The CREATININE [1] was 0.3 mg/dL, the GLUCOSE [1] was 144.67 mg/dL and the “LACTATE DEHYDROGENASE” value [1] was 297.67 u/L. It also gave an LIPASE [1] of 8.67 u/L, a PHOSPHORUS [1] of 9.93 mg/dL and a POTASSIUM [1] of 5.93 MEQ/L. The “TOTAL BILIRUBIN” value [1] was 0.1 mg/dL, the “TOTAL PROTEIN” value [1] was 6 G/DL and the “URIC ACID” value [1] was 0.93 mg/dL. The BASOPHIL [2] was 0.33%, the EOSINOPHIL [2] was 0% and the “ERYTHROCYTE COUNT” value [2] was 6.82 x10E6/uL. The HEMATOCRIT [2] was 42.2%, the HEMOGLOBIN [2] was 13.8 G/DL and the “LEUKOCYTE COUNT” value [2] was 13.23 x10E3/uL. For the same compound, the LYMPHOCYTE [2] was 62%, the “MEAN CORPUSCULAR HEMOGLOBIN” value [2] was 20.2 pg and the “MEAN CORPUSCULAR HEMOGLOBIN CONCENTRATION” value [2] was 32.67 G/DL. The “MEAN CORPUSCULAR VOLUME” value [2] was 61.87 fL, the MONOCYTE [2] was 3% and the NEUTROPHIL [2] was 34.33%. For the same compound, the “PLATELET COUNT” value [2] was 1028 x10E3/uL, the “ALANINE AMINOTRANSFERASE” value [2] was 47 u/L and the ALBUMIN [2] was 3.4 G/DL. The “ALKALINE PHOSPHATASE” value [2] was 316 u/L, the “ASPARTATE AMINOTRANSFERASE” value [2] was 78.33 u/L and the “BLOOD UREA NITROGEN” value [2] was 17.33 mg/dL. For the same compound, the “CARBON DIOXIDE” value [2] was 22.67 mmol/L, the CHLORIDE [2] was 100.33 MEQ/L and the CHOLESTEROL [2] was 66.33 mg/dL. The CREATININE [2] was 0.3 mg/dL, the GLUCOSE [2] was 141.67 mg/dL and the “LACTATE DEHYDROGENASE” value [2] was 188.67 u/L. The LIPASE [2] was 8 u/L, the PHOSPHORUS [2] was 9.9 mg/dL and the POTASSIUM [2] was 5.47 MEQ/L. For the same compound, the “TOTAL BILIRUBIN” value [2] was 0.1 mg/dL, the “TOTAL PROTEIN” value [2] was 6.13 G/DL and the “URIC ACID” value [2] was 0.9 mg/dL. The BASOPHIL [3] was 0.33%, the EOSINOPHIL [3] was 0.33% and the “ERYTHROCYTE COUNT” value [3] was 6.95 x10E6/uL. The HEMATOCRIT [3] was 42.07%, the HEMOGLOBIN [3] was 14.1 G/DL and the “LEUKOCYTE COUNT” value [3] was 8.8 x10E3/uL. The LYMPHOCYTE [3] was 76%, the “MEAN CORPUSCULAR HEMOGLOBIN” value [3] was 20.3 pg and the “MEAN CORPUSCULAR HEMOGLOBIN CONCENTRATION” value [3] was 33.47 G/DL. The “MEAN CORPUSCULAR VOLUME” value [3] was 60.57 fL, the MONOCYTE [3] was 3% and the NEUTROPHIL [3] was 20.33%. The “PLATELET COUNT” value [3] was 1177.67 x10E3/uL, the “ALANINE AMINOTRANSFERASE” value [3] was 44.33 u/L and the ALBUMIN [3] was 3.27 G/DL. The “ALKALINE PHOSPHATASE” value [3] was 226.33 u/L, the “ASPARTATE AMINOTRANSFERASE” value [3] was 101.67 u/L and the “BLOOD UREA NITROGEN” value [3] was 17 mg/dL. The “CARBON DIOXIDE” value [3] was 22 mmol/L, the CHLORIDE [3] was 106 MEQ/L and the CHOLESTEROL [3] was 62 mg/dL. For the same compound, the CREATININE [3] was 0.3 mg/dL, the GLUCOSE [3] was 151 mg/dL and the “LACTATE DEHYDROGENASE” value [3] was 142.33 u/L. The LIPASE [3] was 7.67 u/L, the PHOSPHORUS [3] was 9.3 mg/dL and the POTASSIUM [3] was 6 MEQ/L. The “TOTAL BILIRUBIN” value [3] was 0.1 mg/dL, the “TOTAL PROTEIN” value [3] was 6.07 G/DL and the “URIC ACID” value [3] was 1.17 mg/dL. The BASOPHIL [4] was 0%, the EOSINOPHIL [4] was 0% and the “ERYTHROCYTE COUNT” value [4] was 6.75 x10E6/uL. For the same compound, the HEMATOCRIT [4] was 41.37%, the HEMOGLOBIN [4] was 13.1 G/DL and the “LEUKOCYTE COUNT” value [4] was 11.17 x10E3/uL. For the same compound, the LYMPHOCYTE [4] was 59.67%, the “MEAN CORPUSCULAR HEMOGLOBIN” value [4] was 19.43 pg and the “MEAN CORPUSCULAR HEMOGLOBIN CONCENTRATION” value [4] was 31.73 G/DL. The “MEAN CORPUSCULAR VOLUME” value [4] was 61.3 fL, the MONOCYTE [4] was 4.33% and the NEUTROPHIL [4] was 35.67%. For the same compound, the “PLATELET COUNT” value [4] was 1310.67 x10E3/uL, the “ALANINE AMINOTRANSFERASE” value [4] was 40.67 u/L and the ALBUMIN [4] was 2.83 G/DL. The “ALKALINE PHOSPHATASE” value [4] was 304.33 u/L, the “ASPARTATE AMINOTRANSFERASE” value [4] was 111 u/L and the “BLOOD UREA NITROGEN” value [4] was 17.33 mg/dL. The “CARBON DIOXIDE” value [4] was 22 mmol/L, the CHLORIDE [4] was 101.67 MEQ/L and the CHOLESTEROL [4] was 48 mg/dL. The CREATININE [4] was 0.3 mg/dL, the GLUCOSE [4] was 157.67 mg/dL and the “LACTATE DEHYDROGENASE” value [4] was 113.33 u/L. It also gave an LIPASE [4] of 7 u/L, a PHOSPHORUS [4] of 9 mg/dL and a POTASSIUM [4] of 5.17 MEQ/L. The “TOTAL BILIRUBIN” value [4] was 0.1 mg/dL, the “TOTAL PROTEIN” value [4] was 5.5 G/DL and the “URIC ACID” value [4] was 0.97 mg/dL.
